Experimental data from US20050120392A1, “Transgenic zebrafish models for thrombosis” (priority 2002, published 2005).
“Also recorded” adds a separate entry of the source. Where two headings read alike, the source gives them in different places. Bridge positions count the residues as written; N and C are the ends. Square brackets hold non-standard residues; d marks the D form. Peptide text beside a SMILES is read from it. hArg = N=C(N)NCCCC[C@H](N)C(=O)O; Mpa = O=C(O)CCS

Columns and labels:
P2Y12 mRNA = assay: P2Y12 morpholino knockdown in ADP thrombosis assay; format: in vivo, zebrafish; conditions: 2.4 ng morpholino, 90 pmol ADP
Excerpt: (§1) For some experiments (aspirin, Reopro, Integrilin, Ticlopidine and hirudin), larvae were scored according to the number of stationary platelets observed. The counts were done for sections of the larvae (FIG. 2) and later totaled for the larvae. […] In these experiments (morpholino), control larvae (ADP alone) had no moving platelets.
(§2) P2Y12 (5′-[…]-3′) and GPIIb (5′-[…]-3′) morpholinos were purchased from Gene Tools (Philomath, Oreg.). Both of these morpholinos were designed to recognize the first 25 bases of coding sequence. Morpholino—(0.1 mM stock contained in 0.2% phenol red) or mock—(0.2% phenol red) injections were performed in one to four cell stage of homozygous TG(GPIIb:eGFP) zebrafish. These embryos were checked 2-4 hours after injection to eliminate non-fertilized or poorly developed eggs. The embryos were placed into Holtfretter's solution at 27° C. until used in the thrombosis assay (5-6 dpf). For the thrombosis assay, larvae were injected with 90 pmol of ADP, a concentration that immobilized all platelets in the larvae. A positive or negative effect was designated for each larva when there were moving or no moving platelets, respectively, after ADP challenge.

GPIIb mRNA = assay: GPIIb morpholino knockdown in ADP thrombosis assay; format: in vivo, zebrafish; conditions: 2.4 ng morpholino at 1-4 cell stage, 90 pmol ADP at 5-6 dpf, n=34
Excerpt: as §1, §2

platelets = assay: In vivo thrombosis assay: thrombotic agent injected into heart cavity of TG(GPIIb:eGFP) larvae; set-up: species or system zebrafish
Protocol: Only larvae homozygous for the GPIIb-eGFP transgene, were used for the assay. […] Injection of compounds into the heart cavity of larvae was performed using a glass-pulled capillary needle ( 15 μm in diameter at the tip) attached to a microinjector. Phenol red (0.2%) was routinely used for all injections to ensure accurate injection into the heart cavity. All larvae were anaesthetized with tricaine during the injection and returned to fresh fish water before analysis. Fluorescence was observed using a stereomicroscope with a GFP specific filter set. […] The counts were done for sections of the larvae (FIG. 2) and later totaled for the larvae. […] In these experiments (morpholino), control larvae (ADP alone) had no moving platelets. TG(GPIIb:GFP) zebrafish were bred to produce homozygous TG(GPIIb:eGFP) embryos. […] At 6 dpf, the larvae have developed a swim bladder and most (or all) of their yolk sac has disappeared.

zebrafish larvae = format: in vivo
Protocol: Only larvae homozygous for the GPIIb-eGFP transgene, were used for the assay. Soaking experiments with anti-thrombotic compounds were initiated when larvae were 5 dpf and injections with thrombotic agents were performed the next day. Injection of compounds into the heart cavity of larvae was performed using a glass-pulled capillary needle (˜15 μm in diameter at the tip) attached to a microinjector. Phenol red (0.2%) was routinely used for all injections to ensure accurate injection into the heart cavity. All larvae were anaesthetized with tricaine during the injection and returned to fresh fish water before analysis. Fluorescence was observed using a stereomicroscope with a GFP specific filter set.

[1] = test system: ADP-induced platelet aggregation; assay: In vivo anti-thrombotic assay: ADP-induced aggregate formation in TG(GPIIb:eGFP) larvae; set-up: species or system zebrafish; conditions: for platelet aggregation in zebrafish (summary statement): in vivo
Protocol: (§3) Only larvae homozygous for the GPIIb-eGFP transgene, were used for the assay. […] Injection of compounds into the heart cavity of larvae was performed using a glass-pulled capillary needle ( 15 μm in diameter at the tip) attached to a microinjector. Phenol red (0.2%) was routinely used for all injections to ensure accurate injection into the heart cavity. All larvae were anaesthetized with tricaine during the injection and returned to fresh fish water before analysis. Fluorescence was observed using a stereomicroscope with a GFP specific filter set. […] The counts were done for sections of the larvae (FIG. 2) and later totaled for the larvae. […] In these experiments (morpholino), control larvae (ADP alone) had no moving platelets.

[2] = test system: thrombin-induced platelet aggregation; assay: In vivo anti-thrombotic assay: thrombin-induced aggregate formation in TG(GPIIb:eGFP) larvae; set-up: species or system zebrafish
Protocol: as §3

[3] = 5 dpf larvae soaked overnight in varying concentrations, 90 pmol ADP next day
[4] = Plavix approximately 0.2-1 μg/ml overnight
[5] = GPIIb-eGFP transgenic (homozygous), zebrafish, in vivo
[6] = thrombin 3.38 ng (0.018 NIH unit)

For “5′-AGCTGAGCTGCGTTGTTTGCTCCAT-3′ (morpholino, further chemistry not given here) [P2Y12 morpholino]”, the “effectiveness (larvae with moving platelets after ADP)” value (P2Y12 mRNA) was 50%.
In the case of “5′-GACTGAATTCCAGTTTCTTGTCCAT-3′ (morpholino backbone, further chemistry not given here) [GPIIb morpholino]”, the “tested larvae with moving platelets after ADP injection” value (GPIIb mRNA) was 76.5%.
With `Nc1ncnc2c1ncn2[C@@H]1O[C@H](COP(=O)(O)OP(=O)(O)O)[C@@H](O)[C@H]1O` [ADP] the “number of macroaggregates compared with phenol red-injected group” value (platelets; 90 pmol ADP) was “not significant”, the “platelet movement after injection” value (platelets; 90 pmol ADP into heart cavity) was “most or all of the platelets within the larvae stopped moving; also recorded: a complete inhibition of platelet movement was observed” and the “time until platelets stopped moving” value (platelets; 90 pmol ADP into heart cavity) was ≤ 5 min. The “microaggregates found in each injected larva” value (platelets; 90 pmol ADP into heart cavity, 6-7 dpf larvae, n=16) was “about 38±3 microaggregates”, the “duration of the effect” value (platelets; 90 pmol ADP, observed for up to 8 hours) was “several hours” and the “platelet movement after injection” value (platelets; ADP, concentrations lower than 90 pmol) was “did not induce a complete inhibition of platelet movement”. The “lethality (beating heart)” value (zebrafish larvae; 90 pmol ADP into heart cavity) was “not lethal” and the “time within which the larva died” value (zebrafish larvae; 180 pmol ADP into heart cavity, n=8) was 5 to 10 min.
In the case of `CCCCS(=O)(=O)N[C@@H](Cc1ccc(OCCCCC2CCNCC2)cc1)C(=O)O` [Aggrastat, tirofiban], the ADP-induced aggregation ([1]; Aggrastat 100 μg/ml soak 24 hours plus 240 ng injected 10 min before ADP) was “inhibited”, the ADP-induced aggregation ([1]; Aggrastat 10-50 μg/ml overnight) was “ineffective” and the ADP-induced aggregate formation ([1]; Aggrastat soaking alone or injection alone) was “did not antagonize”.
In the case of `N=C(N)NCCCC[C@@H]1NC(=O)CCSSC[C@@H](C(N)=O)NC(=O)[C@@H]2CCCN2C(=O)[C@H](Cc2c[nH]c3ccccc23)NC(=O)[C@H](CC(=O)O)NC(=O)CNC1=O` [Integrilin, eptifibatide] ([Mpa][hArg]GDWPC-NH2; disulfide 1-7), the “ADP-induced microaggregate formation” value [1, 3] was “dose-dependent inhibition; also recorded: dose-dependently prevented”, the “number of platelet aggregates compared to control group” value ([1]; Integrilin 0.25-1.0 mg/ml overnight soak) was “no change” and the “survival after overnight treatment” value (zebrafish larvae; Integrilin 5 mg/ml) was “all larvae died”.
`COC(=O)[C@H](c1ccccc1Cl)N1CCc2sccc2C1` [Plavix, Clopidogrel] was tested, and the ADP-induced aggregate formation [1, 4] was “partial inhibition”, the “platelet aggregation in zebrafish (summary statement)” value (“platelet aggregation in zebrafish” below) [1] was “effective at inhibiting” and the lethal dose (zebrafish larvae; [5]) was ≥ 5 µg/mL. For the same compound, the “aggregation induced by a high concentration of thrombin” value [2, 4] was “not effective”.
In the case of `Clc1ccccc1CN1CCc2sccc2C1` [Ticlopidine], the “concentration at which larvae did not survive the overnight treatment” value (zebrafish larvae; [5]) was ≥ 10 µM.
In the case of `CC(=O)Oc1ccccc1C(=O)O` [aspirin, acetylsalicylic acid], the “ADP-induced microaggregate formation” value [1, 3] was “prevented”, the “microaggregate count within control phenol red-injected larvae” value ([1]; aspirin 115 μg/ml, no ADP) was “trend toward a decrease” and the ADP-induced microaggregate formation ([1]; aspirin 95 and 105 μg/ml, overnight soak before ADP challenge) was “partially prevented”. The “platelet aggregation in zebrafish” value [1] was “effective at inhibiting”, the “survival after overnight treatment” value (zebrafish larvae; aspirin 125 μg/ml) was “the larvae died” and the “effect on platelet movement or development of the larvae” value (zebrafish larvae; aspirin alone) was “no adverse effect”.
`CNC[C@H](O)c1ccc(O)c(O)c1` [epinephrine] was tested, and the “effect of collagen on platelet aggregation” value (platelets; epinephrine 18 pg in conjunction with collagen) was “did not enhance”.
`CC1CC(=O)NN=C1c1cc(-n2ccnc2)cs1` (centres unmarked) [motapizone] was tested, and the ADP-induced aggregation ([1]; motapizone 50 μM overnight soak) was “Partial inhibition”, the ADP-induced microaggregate formation ([1]; motapizone 250 and 100 μM, overnight soak of 5 dpf larvae) was “effective in blocking” and the “action of ADP on platelet aggregation” value ([1]; motapizone injected 5 min before ADP challenge) was “ineffective”. For the same compound, the ADP-induced aggregation ([1]; motapizone, concentrations lower than 50 μM) was “ineffective”, the “platelet aggregation in zebrafish” value [1] was “decreases platelet aggregation” and the “platelet aggregation in zebrafish” value ([1]; listed as Motapizone) was “effective in reducing”.
For “Reopro: human/murine chimeric antibody, GPIIb/IIIa antagonist”, the ADP-induced microaggregate formation ([1]; Reopro 0.5-5 μg/ml overnight soak plus 120 ng injected 10 min before ADP) was “dose-dependently inhibited”, the “ADP-induced aggregation of platelets” value ([1]; Reopro injection alone (120 ng or less), no overnight soak) was “did not antagonize” and the ADP-induced microaggregate formation ([1]; Reopro overnight soak plus 60 ng injected) was “no effect”.
With hirudin the ADP-induced aggregation ([1]; hirudin 0.029 unit, 90 pmol ADP) was “did not have any effect” and the thrombin-induced aggregate formation ([2]; hirudin 0.029 unit given simultaneously with thrombin 0.018 NIH unit) was “no aggregation was observed; also recorded: inhibited”.
With thrombin the “duration of arrested platelet movement” value (platelets; [6]) was 30 min, the “time after which platelets began to move more freely” value (platelets; [6]) was ≤ 25 min and the “platelet aggregation / arrest after injection” value (platelets; thrombin 3.38 ng (0.018 NIH unit) into heart cavity) was “induced platelet aggregation; also recorded: most of the platelets were arrested”. For the same compound, the platelets arrested (platelets; thrombin 3.38 ng (0.018 NIH unit), 5 min after injection, n=15) was 85-90% and the “platelet mobility (recovery)” value (platelets; thrombin 3.38 ng, within an hour after injection) was “most platelets were mobile”.
